# In ChEMBL document CHEMBL1201862, “PubChem BioAssay data set” (2004):
#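 How tested: cells in 96-well plates exposed to compound for 48 hours at five concentrations. Abbreviation: GI50, concentration required for 50% inhibition of growth.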 The source made the active and inactive calls. No stated cut-off is given here; in the data, active = GI50 up to about 1.1 µM and inactive = higher.
# Assays:
# Experiment in all cases: growth of human tumour cells (NCI), 48 h
# SF-539 = tested on: SF-539
# SF-295 = tested on: SF-295
# SNB-19 = tested on: SNB-19
# LOX IMVI = tested on: LOX IMVI
# MCF7 = tested on: MCF7
# SR = tested on: SR
# HL-60 = tested on: HL-60
# RPMI-8226 = tested on: RPMI-8226
# SN12C = tested on: SN12C
# A498 = tested on: A498
# 786-0 = tested on: 786-0
# HOP-92 = tested on: HOP-92
# K562 = tested on: K562
# IGROV-1 = tested on: IGROV-1
# UACC-62 = tested on: UACC-62
# DU-145 = tested on: DU-145
# SK-MEL-28 = tested on: SK-MEL-28
# OVCAR-3 = tested on: OVCAR-3
# NCI-H23 = tested on: NCI-H23
# COLO 205 = tested on: COLO 205
Compound,GI50 (SF-539),GI50 (SF-295),GI50 (SNB-19),GI50 (LOX IMVI),GI50 (MCF7),GI50 (SR),GI50 (HL-60),GI50 (RPMI-8226),GI50 (SN12C),GI50 (A498),GI50 (786-0),GI50 (HOP-92),GI50 (K562),GI50 (IGROV-1),GI50 (UACC-62),GI50 (DU-145),GI50 (SK-MEL-28),GI50 (OVCAR-3),GI50 (NCI-H23),GI50 (COLO 205)
O=C(O)C(=O)Cc1ccc2c(c1)OCO2,> 100 µM (inactive),> 100 µM (inactive),> 100 µM (inactive),> 100 µM (inactive),> 100 µM (inactive),> 100 µM (inactive),> 100 µM (inactive),> 100 µM (inactive),> 100 µM (inactive),> 100 µM (inactive),> 100 µM (inactive),> 100 µM (inactive),> 100 µM (inactive),> 100 µM (inactive),> 100 µM (inactive),> 100 µM (inactive),> 100 µM (inactive),> 100 µM (inactive),> 100 µM (inactive),> 100 µM (inactive)
Cc1nn(C(=O)c2ccccc2O)c2c1C(c1ccc([N+](=O)[O-])cc1)SC(=N)N2 (stereo unspecified),0.984 µM (active),3.13 µM (inactive),6.05 µM (inactive),3.4 µM (inactive),3.72 µM (inactive),4.83 µM (inactive),4.27 µM (inactive),> 7.03 µM (inactive),4.78 µM (inactive),2.78 µM (inactive),> 5.24 µM (inactive),1.55 µM (inactive),1.17 µM (inactive),1.88 µM (inactive),2.03 µM (inactive),3.64 µM (inactive),> 10 µM (inactive),4.05 µM (inactive),2.79 µM (inactive),> 8.61 µM (inactive)
COC(=O)CC1C=CC(C)(OC)OO1 (stereo unspecified),> 100 µM (inactive),> 100 µM (inactive),> 100 µM (inactive),48.3 µM (inactive),53.1 µM (inactive),58.5 µM (inactive),21 µM (inactive),56.2 µM (inactive),> 100 µM (inactive),> 100 µM (inactive),> 100 µM (inactive),> 100 µM (inactive),19.7 µM (inactive),> 100 µM (inactive),49.9 µM (inactive),> 100 µM (inactive),> 100 µM (inactive),87.7 µM (inactive),> 100 µM (inactive),55.7 µM (inactive)
CCOC(=O)C1CCC(=O)N1C(=O)c1cccc(Cl)c1 (stereo unspecified),> 100 µM (inactive),> 100 µM (inactive),> 100 µM (inactive),> 100 µM (inactive),> 100 µM (inactive),> 100 µM (inactive),> 100 µM (inactive),> 100 µM (inactive),> 100 µM (inactive),> 100 µM (inactive),> 100 µM (inactive),> 100 µM (inactive),> 100 µM (inactive),> 100 µM (inactive),14.8 µM (inactive),> 100 µM (inactive),> 100 µM (inactive),> 100 µM (inactive),> 100 µM (inactive),–
C/C(=N\NC(=S)N1CC2CCC(CC2)C1)c1nccs1,0.307 µM (active),0.296 µM (active),0.741 µM (active),0.271 µM (active),< 0.0258 µM (active),0.0716 µM (active),< 0.01 µM (active),0.0347 µM (active),0.853 µM (active),1.8 µM (inactive),0.25 µM (active),0.646 µM (active),< 0.01 µM (active),0.158 µM (active),0.132 µM (active),0.255 µM (active),1.1 µM (active),0.0415 µM (active),0.434 µM (active),0.0145 µM (active)
Cc1cccc(N(C(=O)Nc2ccc(Cl)c(Cl)c2)C2=NCC(C)S2)c1 (stereo unspecified),22.7 µM (inactive),78.3 µM (inactive),> 100 µM (inactive),18.3 µM (inactive),17 µM (inactive),32.6 µM (inactive),41.6 µM (inactive),49.1 µM (inactive),59.3 µM (inactive),57.8 µM (inactive),31.8 µM (inactive),38.6 µM (inactive),24.8 µM (inactive),69.7 µM (inactive),–,> 100 µM (inactive),38.6 µM (inactive),74.5 µM (inactive),37.3 µM (inactive),44.7 µM (inactive)
Cc1cccc2c1CC(C1OC(=O)c3ccccc31)C2=O (stereo unspecified),> 100 µM (inactive),> 100 µM (inactive),> 100 µM (inactive),> 100 µM (inactive),> 100 µM (inactive),> 100 µM (inactive),> 100 µM (inactive),> 100 µM (inactive),> 100 µM (inactive),> 100 µM (inactive),> 100 µM (inactive),> 100 µM (inactive),> 100 µM (inactive),> 100 µM (inactive),> 100 µM (inactive),> 100 µM (inactive),> 100 µM (inactive),> 100 µM (inactive),> 100 µM (inactive),> 100 µM (inactive)
Cc1csc2c(=O)n(C3OC(CO)C(O)C3O)c(=O)[nH]c12 (stereo unspecified),> 100 µM (inactive),> 100 µM (inactive),> 100 µM (inactive),> 100 µM (inactive),> 100 µM (inactive),> 100 µM (inactive),> 100 µM (inactive),> 100 µM (inactive),> 100 µM (inactive),> 100 µM (inactive),> 100 µM (inactive),> 100 µM (inactive),> 100 µM (inactive),> 100 µM (inactive),–,> 100 µM (inactive),> 100 µM (inactive),> 100 µM (inactive),> 100 µM (inactive),> 100 µM (inactive)
CC1=CC[C@](C)(O)[C@@]2(C)CC[C@H]3C(=C(C)C)C(=O)C[C@]3(C)C[C@H]12,> 50 µM (inactive),> 50 µM (inactive),> 50 µM (inactive),7.93 µM (inactive),31.3 µM (inactive),12.5 µM (inactive),6.55 µM (inactive),11.2 µM (inactive),34.8 µM (inactive),> 50 µM (inactive),15.7 µM (inactive),> 50 µM (inactive),9.2 µM (inactive),19.3 µM (inactive),11.9 µM (inactive),> 50 µM (inactive),> 50 µM (inactive),36.3 µM (inactive),34.1 µM (inactive),45.5 µM (inactive)
O=c1c2c(sc3ccccc13)NCN(CCc1ccccc1)C2,55.3 µM (inactive),20.7 µM (inactive),30.8 µM (inactive),33.5 µM (inactive),56.6 µM (inactive),42.2 µM (inactive),> 100 µM (inactive),19.9 µM (inactive),41.8 µM (inactive),67.9 µM (inactive),29.7 µM (inactive),53 µM (inactive),19.7 µM (inactive),24.7 µM (inactive),34.2 µM (inactive),70.5 µM (inactive),34.9 µM (inactive),73.3 µM (inactive),38.1 µM (inactive),18.1 µM (inactive)
CC(C)(C)OC(=O)NC(Cc1ccc(OCc2ccccc2)cn1)C(=O)N1CCCCC1 (stereo unspecified),41.3 µM (inactive),30.5 µM (inactive),80.5 µM (inactive),25.4 µM (inactive),31.6 µM (inactive),28.6 µM (inactive),27 µM (inactive),20.7 µM (inactive),37.8 µM (inactive),34.5 µM (inactive),56 µM (inactive),39.9 µM (inactive),31.7 µM (inactive),53.7 µM (inactive),29.1 µM (inactive),33 µM (inactive),54.3 µM (inactive),35.6 µM (inactive),31.1 µM (inactive),18.6 µM (inactive)
Cc1ccc2c(c1)C(=O)/C(=N/Nc1ccc(Cl)cc1)CCO2,> 100 µM (inactive),24.3 µM (inactive),> 100 µM (inactive),35.2 µM (inactive),58.7 µM (inactive),44.8 µM (inactive),38.9 µM (inactive),36.3 µM (inactive),> 100 µM (inactive),> 100 µM (inactive),37.1 µM (inactive),72.4 µM (inactive),28 µM (inactive),> 100 µM (inactive),50.1 µM (inactive),> 100 µM (inactive),> 100 µM (inactive),> 100 µM (inactive),> 100 µM (inactive),63.5 µM (inactive)
O=C1c2ccccc2C(=O)N1c1nc(-c2ccc(Cl)cc2)cc(N2N=C(c3ccc(Br)cc3)CC2c2ccccc2)n1 (stereo unspecified),2.16 µM (inactive),0.91 µM (active),4.86 µM (inactive),1.29 µM (inactive),1.3 µM (inactive),0.65 µM (active),2.9 µM (inactive),2.7 µM (inactive),2.9 µM (inactive),19.2 µM (inactive),4.93 µM (inactive),11.4 µM (inactive),3.08 µM (inactive),2.84 µM (inactive),2.72 µM (inactive),3.45 µM (inactive),7.73 µM (inactive),0.863 µM (active),5.37 µM (inactive),1.9 µM (inactive)
Cc1c(Cl)ccc2c(=O)c3cccc(CC(=O)O)c3oc12,> 100 µM (inactive),> 100 µM (inactive),> 100 µM (inactive),> 100 µM (inactive),35.6 µM (inactive),> 100 µM (inactive),> 100 µM (inactive),> 100 µM (inactive),> 100 µM (inactive),> 100 µM (inactive),> 100 µM (inactive),> 100 µM (inactive),> 100 µM (inactive),> 100 µM (inactive),–,> 100 µM (inactive),> 100 µM (inactive),> 100 µM (inactive),> 100 µM (inactive),> 100 µM (inactive)
